# Measured values reported in patent US8193356B2, “Heterocycle compound, and production process and application thereof” (Aska Pharmaceutical Co., Ltd., priority 2005, dated 2012).
row,melting point,SMILES
1,269 to 272 °C,"O=c1c2c(Cc3ccccc3)n[nH]c2c2ncccc2n1-c1ccccc1 (hydrate or solvate) [Example 30, 3-Benzyl-5-phenyl-1H-pyrazolo[4,3-c][1,5]naphthyridin-4(5H)-one]"
2,234 to 238 °C,"O=c1c2c(Cc3cccs3)n[nH]c2c2cccnc2n1-c1cccc(OC(F)(F)F)c1 [Example 45, 3-(2-Thienylmethyl)-5-(3-trifluoromethoxyphenyl)-1H-pyrazolo[4,3-c][1,8]-naphthyridin-4(5H)-one]"
3,134 to 137 °C,"O=c1c2c(Cc3ccc(OC(F)(F)F)cc3)n[nH]c2c2cccnc2n1-c1cccc(C(F)(F)F)c1 [Example 22, 3-(4-Trifluoromethoxybenzyl)-5-(3-trifluoromethylphenyl)-1H-pyrazolo[4,3-c][1,8]naphthyridin-4(5H)-one]"
4,240 to 242 °C,"Cc1ccccc1Cc1n[nH]c2c1c(=O)n(-c1cccc(OC(F)(F)F)c1)c1ncccc21 (hydrate or solvate) [Example 34, 3-(2-Methylbenzyl)-5-(3-trifluoromethoxyphenyl)-1H-pyrazolo[4,3-c][1,8]-naphthyridin-4(5H)-one]"
5,274 to 276 °C,"O=c1c2c(Cc3ccccc3[N+](=O)[O-])n[nH]c2c2cccnc2n1-c1cccc(OC(F)(F)F)c1 (hydrate or solvate) [Example 35, 3-(2-Nitrobenzyl)-5-(3-trifluoromethoxyphenyl)-1H-pyrazolo[4,3-c][1,8]-naphthyridin-4(5H)-one]"
6,282 to 284 °C,"O=c1c2c(Cc3ccccc3[N+](=O)[O-])n[nH]c2c2cccnc2n1-c1cccc(C(F)(F)F)c1 (hydrate or solvate) [Example 41, 3-(2-Nitrobenzyl)-5-(3-trifluoromethylphenyl)-1H-pyrazolo[4,3-c][1,8]-naphthyridin-4(5H)-one]"
7,303 to 307 °C,"O=c1c2c(Cc3ccccc3)n[nH]c2c2ccncc2n1-c1ccccc1 [Example 29, 3-Benzyl-5-phenyl-1H-pyrazolo[4,3-c][1,7]naphthyridin-4(5H)-one]"
8,233 to 235 °C,"CCC(c1ccccc1)c1n[nH]c2c1c(=O)n(-c1ccccc1)c1ncccc21 (centres unmarked) [Example 43, 5-Phenyl-3-(1-phenylpropyl)-1H-pyrazolo[4,3-c][1,8]naphthyridin-4(5H)-one]"
9,228 to 234 °C,"O=c1c2c(CC3CCOCC3)n[nH]c2c2cccnc2n1-c1ccccc1 (hydrate or solvate) [Example 44, 5-Phenyl-3-(tetrahydro-2H-pyran-4-ylmethyl)-1H-pyrazolo[4,3-c][1,8]naphthyridin-4(5H)-one]"
10,174 to 177 °C,"O=c1c2c(Cc3cccc(OC(F)(F)F)c3)n[nH]c2c2cccnc2n1-c1cccc(OC(F)(F)F)c1 [Example 27, 3-(3-Trifluoromethoxybenzyl)-5-(3-trifluoromethoxyphenyl)-1H-pyrazolo[4,3-c][1,8]naphthyridin-4(5H)-one]"
11,183 to 185 °C,"CC(c1ccccc1)c1n[nH]c2c1c(=O)n(-c1cccc(OC(F)(F)F)c1)c1ncccc21 (centres unmarked) [Example 36, 3-(1-Phenylethyl)-5-(3-trifluoromethoxyphenyl)-1H-pyrazolo[4,3-c][1,8]naphthyridin-4(5H)-one]"
12,227 to 231 °C,"O=c1c2c(Cc3ccc(C(F)(F)F)cc3)n[nH]c2c2cccnc2n1-c1cccc(OC(F)(F)F)c1 [Example 25, 5-(3-Trifluoromethoxyphenyl)-3-(4-trifluoromethylbenzyl)-1H-pyrazolo[4,3-c][1,8]naphthyridin-4(5H)-one]"
13,243 to 245 °C,"COc1ccccc1Cc1n[nH]c2c1c(=O)n(-c1cccc(OC(F)(F)F)c1)c1ncccc21 (hydrate or solvate) [Example 31, 3-(2-Methoxybenzyl)-5-(3-trifluoromethoxyphenyl)-1H-pyrazolo[4,3-c][1,8]-naphthyridin-4(5H)-one]"
14,233 to 236 °C,"O=c1c2c(Cc3ccccc3OC(F)(F)F)n[nH]c2c2cccnc2n1-c1cccc(OC(F)(F)F)c1 [Example 26, 3-(2-Trifluoromethoxybenzyl)-5-(3-trifluoromethoxyphenyl)-1H-pyrazolo[4,3-c][1,8]naphthyridin-4(5H)-one]"
15,235 to 237 °C,"CC(c1ccccc1)c1n[nH]c2c1c(=O)n(-c1cccc(C(F)(F)F)c1)c1ncccc21 (centres unmarked) [Example 42, 3-(1-Phenylethyl)-5-(3-trifluoromethylphenyl)-1H-pyrazolo[4,3-c][1,8]naphthyridin-4(5H)-one]"
16,249 to 252 °C,"Cc1ccccc1Cc1n[nH]c2c1c(=O)n(-c1cccc(C(F)(F)F)c1)c1ncccc21 (hydrate or solvate) [Example 40, 3-(2-Methylbenzyl)-5-(3-trifluoromethylphenyl)-1H-pyrazolo[4,3-c][1,8]-naphthyridin-4(5H)-one]"
17,247 to 251 °C,"O=c1c2c(Cc3ccsc3)n[nH]c2c2cccnc2n1-c1cccc(OC(F)(F)F)c1 [Example 46, 3-(3-Thienylmethyl)-5-(3-trifluoromethoxyphenyl)-1H-pyrazolo[4,3-c][1,8]-naphthyridin-4(5H)-one]"
18,129 to 132 °C,"O=c1c2c(Cc3ccc(OC(F)(F)F)cc3)n[nH]c2c2cccnc2n1-c1cccc(OC(F)(F)F)c1 [Example 28, 3-(4-Trifluoromethoxybenzyl)-5-(3-trifluoromethoxyphenyl)-1H-pyrazolo[4,3-c][1,8]naphthyridin-4(5H)-one]"

# The next lines start with the compound.
row,SMILES,melting point
1,"O=c1c2c(CCC(F)(F)F)n[nH]c2c2cccnc2n1-c1ccccc1 [Example 14, 5-Phenyl-3-(3,3,3-trifluoropropyl)-1H-pyrazolo[4,3-c][1,8]naphthyridin-4(5H)-one]",272 to 274 °C
2,"O=c1c2c(Cc3ccccc3)n[nH]c2c2cccnc2n1-c1cccc(OC(F)(F)F)c1 (hydrate or solvate) [Example 1, 3-Benzyl-5-(3-trifluoromethoxyphenyl)-1H-pyrazolo[4,3-c][1,8]-naphthyridin-4(5H)-one]",249 to 251 °C
3,"O=c1c2c(Cc3ccccc3C(F)(F)F)n[nH]c2c2cccnc2n1-c1cccc(C(F)(F)F)c1 [Example 17, 3-(2-Trifluoromethylbenzyl)-5-(3-trifluoromethylphenyl)-1H-pyrazolo[4,3-c][1,8]naphthyridin-4(5H)-one]",260 to 264 °C
4,"O=c1c2c(Cc3ccccc3)n[nH]c2c2ccccc2n1-c1ccccc1 [Example 16, 3-Benzyl-5-phenyl-1H-pyrazolo[4,3-c]quinolin-4(5H)-one]",255 to 257 °C
5,"O=c1c2c(Cc3cccc(OC(F)(F)F)c3)n[nH]c2c2cccnc2n1-c1ccccc1 (hydrate or solvate) [Example 5, 5-Phenyl-3-(3-trifluoromethoxybenzyl)-1H-pyrazolo[4,3-c][1,8]naphthyridin-4(5H)-one]",253 to 254 °C
6,"O=c1c2c(CCCCCCc3ccccc3)n[nH]c2c2cccnc2n1-c1ccccc1 [Example 12, 5-Phenyl-3-(6-phenylhexyl)-1H-pyrazolo[4,3-c][1,8]naphthyridin-4(5H)-one]",150 to 151 °C
7,"O=c1c2c(Cc3ccccc3)n[nH]c2c2cccnc2n1-c1cccc(C(F)(F)F)c1 (hydrate or solvate) [Example 2, 3-Benzyl-5-(3-trifluoromethylphenyl)-1H-pyrazolo[4,3-c][1,8]-naphthyridin-4(5H)-one]",226 to 228 °C
8,"O=c1c2c(Cc3ccc(C(F)(F)F)cc3)n[nH]c2c2cccnc2n1-c1cccc(C(F)(F)F)c1 [Example 19, 3-(4-Trifluoromethylbenzyl)-5-(3-trifluoromethylphenyl)-1H-pyrazolo[4,3-c][1,8]naphthyridin-4(5H)-one]",145 to 148 °C
9,"O=c1c2c(Cc3ccc(C(F)(F)F)cc3)n[nH]c2c2cccnc2n1-c1ccccc1 [Example 7, 5-Phenyl-3-(4-trifluoromethylbenzyl)-1H-pyrazolo[4,3-c][1,8]naphthyridin-4(5H)-one]",216 to 219 °C
10,"O=c1c2c(Cc3ccc(OC(F)(F)F)cc3)n[nH]c2c2cccnc2n1-c1ccccc1 (hydrate or solvate) [Example 6, 5-Phenyl-3-(4-trifluoromethoxybenzyl)-1H-pyrazolo[4,3-c][1,8]naphthyridin-4(5H)-one]",216 to 218 °C
11,"COCc1n[nH]c2c1c(=O)n(-c1ccccc1)c1ncccc21 (hydrate or solvate) [Example 10, 3-(Methoxymethyl)-5-phenyl-1H-pyrazolo[4,3-c][1,8]naphthyridin-4(5H)-one]",263 to 265 °C
12,"O=c1c2c(CC3CCCCC3)n[nH]c2c2cccnc2n1-c1ccccc1 [Example 13, 3-Cyclohexylmethyl-5-phenyl-1H-pyrazolo[4,3-c][1,8]naphthyridin-4(5H)-one]",280 to 281 °C
13,"O=c1c2c(Cc3ccccc3)n[nH]c2c2cnccc2n1-c1ccccc1 [Example 15, 3-Benzyl-5-phenyl-1H-pyrazolo[4,3-c][1,6]naphthyridin-4(5H)-one]",284 to 287 °C
14,"O=c1c2c(Cc3cccc(OC(F)(F)F)c3)n[nH]c2c2cccnc2n1-c1cccc(C(F)(F)F)c1 [Example 21, 3-(3-Trifluoromethoxybenzyl)-5-(3-trifluoromethylphenyl)-1H-pyrazolo[4,3-c][1,8]naphthyridin-4(5H)-one]",129 to 132 °C
15,"Cc1ccc2c3[nH]nc(Cc4ccccc4)c3c(=O)n(-c3ccccc3)c2n1 (hydrate or solvate) [Example 3, 3-Benzyl-7-methyl-5-phenyl-1H-pyrazolo[4,3-c][1,8]-naphthyridin-4(5H)-one]",300 to 302 °C
16,"O=c1c2c(Cc3cccc(C(F)(F)F)c3)n[nH]c2c2cccnc2n1-c1cccc(C(F)(F)F)c1 [Example 18, 3-(3-Trifluoromethylbenzyl)-5-(3-trifluoromethylphenyl)-1H-pyrazolo[4,3-c][1,8]naphthyridin-4(5H)-one]",206 to 208 °C
17,"O=c1c2c(Cc3ccccc3OC(F)(F)F)n[nH]c2c2cccnc2n1-c1cccc(C(F)(F)F)c1 [Example 20, 3-(2-Trifluoromethoxybenzyl)-5-(3-trifluoromethylphenyl)-1H-pyrazolo[4,3-c][1,8]naphthyridin-4(5H)-one]",247 to 252 °C
